Where “and” joins values, the source holds several entries; their conditions need not be identical. Equal entries are not always repeated. Where two headings read alike, the source gives them in different places.
Tests used:
[1] = Proton dissociation constants by UV–vis titration; assay type: physicochemical; conditions: 30–70% (w/w) DMSO–water, 298 K, I = 0.10 M (KCl); for pKa: DMSO:water 30:70 (w/w) solvent mixture
Procedure: The protonation processes of HL^1nm and its morpholine counterpart HL^1 (Chart 3) and the solution stability of their copper(II) complexes (1nm and 1) were characterized by UV–vis spectrophotometry. […] Based on the characteristic changes in the UV–vis spectra for HL^1nm in the pH range 2–6 (Figure 3a), two relatively well-separated proton dissociation processes were observed and their pKa values were determined (Table 1).
(§1) An Agilent Carry 8454 diode array spectrophotometer was used to record the UV–visible (UV–vis) spectra in the interval 200–800 nm. The path length was 2 or 0.5 cm. Spectrophotometric titrations were performed on samples containing the proligands HL^1, HL^1nm, or their copper(II) complexes (1 and 1nm; see Chart 2) by a KOH solution in the presence of 0.1 M KCl in a DMSO:water 30:70 (w/w) mixture as a solvent at 25.0 ± 0.1 °C in the pH range from 2 to 11. […] An Orion 710A pH meter equipped with a Metrohm combined electrode (type 6.0234.100) and a Metrohm 665 Dosimat burette were used for the pH measurements and titrations. […] The average water ionization constant (pKw) is 14.52 ± 0.05, which corresponds well to the literature data.[103] Argon was passed over the solutions during the titrations. Proton dissociation constants (pKa) of the ligand, overall stability constants (log β) of the copper(II) complexes, and the individual spectra of the various species present in the solution were calculated by the computer program PSEQUAD.[104] β (MpLqHr) is defined for the general equilibrium pM + qL + rH MpLqHr as β (MpLqHr) = [MpLqHr]/[M]^p[L]^q[H]^r where M denotes the copper(II) ion and L the completely deprotonated ligand. The calculations were always made from the experimental titration data measured in the absence of any precipitate in the solution.

[2] = test system: doxorubicin-sensitive Colo205 human colon adenocarcinoma cells; test: MTT antiproliferative assay; assay type: cell-based; conditions: for selectivity factor (SF) Colo205: IC50 MRC-5/IC50 Colo205; for IC50: MTT, 72 h
Procedure: (§2) The in vitro antiproliferative activity of the compounds was tested in doxorubicin-sensitive Colo205 and multidrug-resistant Colo320 human colon adenocarcinoma cell lines as well as in normal human embryonal lung fibroblast cells (MRC-5) by MTT assay.
(§3) Human colonic adenocarcinoma cell lines Colo 205 doxorubicin-sensitive (ATCC-CCL-222) and Colo 320/MDR-LRP multidrug resistant over-expressing ABCB1 (MDR1)-LRP (ATCC-CCL-220.1) were purchased from LGC Promochem, Teddington, UK. The cells were cultured in an RPMI 1640 medium supplemented with 10% heat-inactivated fetal bovine serum, 2 mM L-glutamine, 1 mM Na-pyruvate, and 10 mM HEPES. The semi-adherent human colon cancer cells were detached with Trypsin-Versene (EDTA) solution for 5 min at 37 °C. An MRC-5 human embryonal lung fibroblast cell line (ATCC CCL-171) was purchased from LGC Promochem, Teddington, UK. The cells were cultured in Eagle’s minimal essential medium (EMEM, containing 4.5 g L^–1 glucose) supplemented with a non-essential amino acid mixture, a selection of vitamins, and 10% heat-inactivated fetal bovine serum. The HCT-116 colon carcinoma cells and isogenic p53-knock-out subline were a gift of Prof. Bert Vogelstein from The Johns Hopkins Oncology Center. Cells were cultured in McCoy’s 5A medium supplemented with 10% heat-inactivated fetal bovine serum and 4 mM L-glutamine. All cell lines were incubated at 37 °C, in a 5% CO2, 95% air atmosphere.
(§4) MRC-5 non-cancerous human embryonic lung fibroblast and human colonic adeno-carcinoma cell lines (doxorubicin-sensitive Colo 205 and multidrug resistant Colo 320 colonic adenocarcinoma cells) were used to determine the effect of compounds on cell growth. The effects of increasing concentrations of compounds on cell growth were tested in 96-well flat-bottomed microtiter plates. The compounds were dissolved in DMSO and stock solutions of 10 mM were prepared. These were further diluted in the appropriate cell culture medium by twofold serial dilution starting from 100 or 10 μM for the compounds. The adherent human embryonal lung fibroblast cells were cultured in 96-well flat-bottomed microtiter plates using EMEM supplemented with 10% heat-inactivated fetal bovine serum. The density of the cells was adjusted to 1 × 10^4 cells in 100 μL per well, the cells were seeded for 24 h at 37 °C, 5% CO2, then the medium was removed from the plates containing the cells, and the dilutions of compounds previously made in a separate plate were added to the cells in 200 μL. In the case of the colonic adenocarcinoma cells, the twofold serial dilutions of compounds were prepared in 100 μL of RPMI 1640, horizontally. The semi-adherent colonic adenocarcinoma cells were treated with Trypsin-Versene (EDTA) solution. They were adjusted to a density of 1 × 10^4 cells in 100 μL of RPMI 1640 medium and were added to each well, with the exception of the medium control wells. The final volume of the wells containing compounds and cells was 200 μL. The culture plates were incubated at 37 °C for 72 h; at the end of the incubation period, 20 μL of MTT (thiazolyl blue tetrazolium bromide, Sigma) solution (from a stock solution of 5 mg mL^–1) was added to each well. After incubation at 37 °C for 4 h, 100 μL of sodium dodecyl sulfate (SDS) (Sigma) solution (10% in 0.01 M HCI) was added to each well and the plates were further incubated at 37 °C overnight. Cell growth was determined by measuring the optical density (OD) at 540/630 nm with a Multiscan EX ELISA reader (Thermo Labsystems, Cheshire, WA, USA). […] Curves were fitted by GraphPad Prism software[57] using the sigmoidal dose–response model (comparing variable and fixed slopes). The IC50 values were obtained from at least three independent experiments. Tests in adherent HCT-116 colon carcinoma cells and an isogenic p53-knock-out subline thereof were performed in a similar manner, with 1.5 × 10^3 cells seeded in 100 μL of McCoy’s 5A medium (Sigma-Aldrich) per well. […]

[3] = test system: normal human embryonal lung fibroblast cells (MRC-5); test: MTT antiproliferative assay; assay type: cell-based; conditions: read-out: IC50 MRC-5 benign, mean
Procedure: as §2, §3, §4

[4] = test system: multidrug-resistant Colo320 human colon adenocarcinoma cells; test: MTT antiproliferative assay; assay type: cell-based; conditions: for selectivity factor (SF) Colo320: IC50 MRC-5/IC50 Colo320; for IC50: MTT, 72 h
Procedure: as §2, §3, §4

[5] = Thermodynamic solubility, UV–vis of saturated solutions
Procedure: The concentration of the compounds was determined by UV–vis spectrophotometry using stock solutions of the compounds with a known concentration dissolved in pure DMSO and 50% (v/v) DMSO/buffered aqueous solution for the calibration.

[6] = Overall stability constants of copper(II) complexes by UV–vis titration; assay type: physicochemical; conditions: 30–70% (w/w) DMSO–water, 298 K
From the text: The tridentate coordination via the N,N,N donor set is assumed in [Cu(HL^1nm)]^2+ at such low pH. […] The deprotonation of the non-coordinating hydrazonic nitrogen is likely, and complex [Cu(L^1nm)]^+ is formed. […] However, the absorbance is decreased in the whole wavelength range due to precipitate formation. By the deconvolution of the recorded UV–vis spectra, overall stability constants for the complexes [Cu(HL^1nm)]^2+ and [Cu(L^1nm)]^+ were computed, and log β for [Cu(L^1nm)(OH)] was only estimated (Table 1). In the case of the morpholine hybrid, a somewhat different speciation was obtained as the presence of the pendant morpholine moiety had to be taken into consideration. Log β values for [CuH(HL^1)]^3+, [CuH(L^1)]^2+, and [Cu(L^1)]^+ were computed from the spectrophotometric titration data (Table 1). Since the molar absorbance spectra of [CuH(HL^1)]^3+ and [CuH(L^1)]^2+ complexes resemble those of [Cu(HL^1nm)]^2+ and [Cu(L^1nm)]^+ (Figure 4b), the same coordination modes are likely in these species in couples. […] Increasing the pH (pH > 5), the absorbance is decreased in the whole wavelength range, no isosbestic points are found (indicating the formation of some precipitate), while the λmax is increased. Formation of a mixed hydroxido species [CuH(L^1)(OH)]^+ is also possible. However, the deprotonation of the morpholinium group can take place as well (formation of [Cu(L^1)]^+) in this pH range. As these two processes are overlapping, the two species could not be well distinguished, and the obtained stability constant is quite uncertain.
as §1

Colo320 cells = test: Apoptosis assay, Annexin-V-FITC/PI flow cytometry; conditions: 3 h induction
Procedure: An apoptosis assay was performed by flow cytometry via the analysis of multidrug-resistant Colo320 cells stained with Annexin-V-FITC and propidium iodide (PI).
Colo320 cells were treated at the indicated concentration of the compounds. The dual parametric dot plots combining Annexin-V (FL1) and PI (FL3) fluorescence show the viable cell population in the lower left quadrant Annexin-V–/PI– (Q4), the early apoptotic cells in the lower right quadrant Annexin-V+/PI– (Q3), and the late apoptotic and necrotic cells in the upper right quadrant Annexin-V+/PI+ (Q2).
The assay was carried out for selected compounds using an Annexin V-FITC Apoptosis Detection Kit (cat. no. APOAF-50TST) from Sigma according to the manufacturer’s instructions. The concentration of the Colo320 cell suspension was adjusted to approximately 0.5 × 10^6 cells/mL in an RPMI 1640 medium, and the cell suspension was distributed in 1 mL of aliquots into a 24-well plate and then incubated overnight at 37 °C and 5% CO2. On the following day, the medium was removed and replaced by 1 mL of RPMI medium containing the compounds except the control samples. […] After the incubation period, the samples were washed with PBS and fresh RPMI 1640 medium was added to the samples. The cells were incubated overnight at 37 °C and 5% CO2. The next day, 200 μL of 0.25% Trypsin (Trypsin-Versen) was added to the samples until cells appeared detached followed by the addition of 400 μL of RPMI 1640 medium supplemented with 10% bovine serum. The cells were collected in Eppendorf tubes and centrifuged at 2000g for 2 min. The harvested cells were resuspended in fresh serum-free RPMI 1640 culture medium. After this step, the apoptosis assay was carried out according to the instructions of the manufacturer. The fluorescence was analyzed immediately using a ParTec CyFlow flow cytometer (Partec GmbH, Münster, Germany).
• Apoptosis and DNA binding studies […]

[7] = pH 5, 20 mM MES buffer, water, 298 K
[8] = pH 7.4, 20 mM HEPES, water, 298 K

## C(=NNC1=NCc2ccccc2-c2c1[nH]c1ccccc21)c1ccccn1.[Cl][Cu][Cl] [1nm]
[1]
  pKa [Cu(HL^1nm)]^2+: 4.32
  pKa [Cu(L^1nm)]^+: 7.09

## CC(=NNC1=NCc2ccccc2-c2c1[nH]c1ccc(Br)cc21)c1ccccn1.[Cl][Cu][Cl] [4nm]
[2]
  selectivity factor (SF) Colo205: 2.29
  IC50: 83 nM
[3]; 72 h
  IC50: 190 nM
[4]
  selectivity factor (SF) Colo320: 0.54
  IC50: 350 nM

## C(=NNc1nc2ccccc2c2c1[nH]c1ccccc12)c1ccccn1.[Cl][Cu][Cl] [5nm]
[5]; [7]
  Thermodynamic solubility (S): 134 µM
[5]; [8]
  Thermodynamic solubility (S): 5.7 µM

## Brc1ccc2[nH]c3c(NN=Cc4ccccn4)nc4ccccc4c3c2c1.[Cl][Cu][Cl] [6nm]
[5]; [7]
  Thermodynamic solubility (S): 8.9 µM
[5]; [8]
  Thermodynamic solubility (S): 3.1 µM

## C(=N\N=C1/NCc2ccccc2-c2c1[nH]c1ccccc21)/c1ccccn1 [HL^1nm]
[1]; read-out: pKa1
  pKa: 2.32 ± 0.01
[1]; read-out: pKa2
  pKa: 4.75 ± 0.01
[6]; I = 0.10 M (KCl)
  log β [Cu(HL^1nm)]^2+: 8.33 and 8.33 ± 0.01
  log β [Cu(L^1nm)]^+: 4.01 and 4.01 ± 0.01
[6]; only estimated
  log β [Cu(L^1nm)(OH)]: –3.1 ± 0.1

## C/C(=N\N=C1/NCc2ccccc2-c2c1[nH]c1ccc(Br)cc21)c1ccccn1 [HL^4nm]
[2]; Homo sapiens, COLO 205
  IC50: 91 nM
[2]
  selectivity factor (SF) Colo205: 1.22
[3]; Homo sapiens, MRC5, 72 h
  IC50: 111 nM
[4]; Homo sapiens, COLO 320
  IC50: 8190 nM
[4]
  selectivity factor (SF) Colo320: 0.01

## C(=NN=c1[nH]c2ccccc2c2c1[nH]c1ccccc12)c1ccccn1 [HL^5nm]
[5]; [7]
  Thermodynamic solubility (S): 1.1 µM
[5]; [8]
  Thermodynamic solubility (S): 0.3 µM

## c1ccc2c(c1)Nc1c(ccc3ccccc13)S2 [M627, 12H-benzo[α]phenothiazine, reference compound]
Colo320 cells; 10 µM
  Cell death % Q1: 4.59%
  Early apoptosis % Q3: 12.4%
  Late apoptosis and necrosis % Q2: 31.5%
Colo320 cells; 20 µM
  Cell death % Q1: 7.85%
  Early apoptosis % Q3: 11.1%
  Late apoptosis and necrosis % Q2: 26.1%

## Brc1ccc2[nH]c3c(NN=Cc4ccc(CN5CCOCC5)cn4)nc4ccccc4c3c2c1.[Cl][Cu][Cl] [compound 6, CuCl2(HL^6)·1.5H2O]
[5]; pH 5
  Thermodynamic solubility (S): 6.6 µM
[5]; pH 7.4
  Thermodynamic solubility (S): 0.4 µM
[2]
  selectivity factor (SF) Colo205: 0.20
  IC50: 1090 nM
[3]; 72 h
  IC50: 221 nM
[4]
  selectivity factor (SF) Colo320: 0.26
  IC50: 851 nM

## CC(=NNc1nc2ccccc2c2c1[nH]c1ccccc12)c1ccc(CN2CCOCC2)cn1.[Cl][Cu][Cl] [compound 7, CuCl2(HL^7)·0.5H2O]
[5]; pH 5
  Thermodynamic solubility (S): 89.7 µM
[5]; pH 7.4
  Thermodynamic solubility (S): 38.3 µM
[2]
  selectivity factor (SF) Colo205: 6.65
  IC50: 98 nM
[3]; 72 h
  IC50: 652 nM
[4]
  selectivity factor (SF) Colo320: 4.38
  IC50: 149 nM

## COc1cccc2c1C(=O)c1c(O)c3c(c(O)c1C2=O)C[C@@](O)(C(=O)CO)C[C@@H]3O[C@H]1C[C@H](N)[C@H](O)[C@H](C)O1 [doxorubicin, reference compound]
[2]; Homo sapiens, COLO 205
  IC50: 712 nM
[2]
  selectivity factor (SF) Colo205: 15.44
[3]; Homo sapiens, MRC5, 72 h
  IC50: 11000 nM
[4]; Homo sapiens, COLO 320
  IC50: 5430 nM
[4]
  selectivity factor (SF) Colo320: 2.03

— publication PMC8842277, “Highly Antiproliferative Latonduine and Indolo[2,3-c]quinoline Derivatives: Complex Formation with Copper(II) Markedly Changes the Kinase Inhibitory Profile” (Journal of Medicinal Chemistry, 2022)
